Test results as given in article PMC6934184, “Selective DNA-PKcs inhibition extends the therapeutic index of localized radiotherapy and chemotherapy” (The Journal of Clinical Investigation, 2019).

Molecular target: T1, KIT Y823D (Homo sapiens, UniProt P10721, Y823D)
T1 construct: purchased Thermo Fisher Scientific (Life Technologies) SelectScreen
Assay: SelectScreen LanthaScreen
Assay type: binding
Details: read-out: % displacement
Method in brief: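 SelectScreen broad panel; activity (Z'LYTE, Adapta) plus binding formats. ATP: Km app for CSF1R Z'LYTE; 10 for CAMK1 Adapta. Readout = % per kinase.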

T1 sequence (P10721 26-976 Y823D): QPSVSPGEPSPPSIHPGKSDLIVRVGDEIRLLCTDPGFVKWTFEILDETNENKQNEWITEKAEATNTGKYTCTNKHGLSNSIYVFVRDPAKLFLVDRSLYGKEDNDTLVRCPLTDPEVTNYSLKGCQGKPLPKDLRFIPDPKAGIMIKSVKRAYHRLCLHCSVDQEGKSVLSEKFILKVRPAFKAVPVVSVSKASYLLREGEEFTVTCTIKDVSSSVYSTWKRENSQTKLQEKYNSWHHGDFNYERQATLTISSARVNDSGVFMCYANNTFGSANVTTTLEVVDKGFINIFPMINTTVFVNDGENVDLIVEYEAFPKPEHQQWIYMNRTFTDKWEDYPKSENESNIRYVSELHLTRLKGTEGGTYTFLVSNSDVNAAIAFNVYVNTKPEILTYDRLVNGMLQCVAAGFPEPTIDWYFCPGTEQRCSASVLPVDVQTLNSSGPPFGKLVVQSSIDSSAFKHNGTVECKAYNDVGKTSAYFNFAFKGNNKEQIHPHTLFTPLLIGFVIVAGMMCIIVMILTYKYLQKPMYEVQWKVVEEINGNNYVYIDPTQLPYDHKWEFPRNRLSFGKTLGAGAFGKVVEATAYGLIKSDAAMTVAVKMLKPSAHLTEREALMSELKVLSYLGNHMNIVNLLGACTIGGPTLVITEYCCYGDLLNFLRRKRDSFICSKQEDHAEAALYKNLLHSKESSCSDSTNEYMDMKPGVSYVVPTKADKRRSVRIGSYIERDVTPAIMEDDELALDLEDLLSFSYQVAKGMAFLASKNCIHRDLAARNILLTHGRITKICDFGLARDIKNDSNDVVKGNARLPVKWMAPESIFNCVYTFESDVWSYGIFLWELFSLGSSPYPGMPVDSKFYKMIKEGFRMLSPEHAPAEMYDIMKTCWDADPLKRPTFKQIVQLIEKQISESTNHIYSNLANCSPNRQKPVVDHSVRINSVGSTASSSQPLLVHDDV

CN(C(=O)CN1CCOCC1)c1ccc2sc3c(-c4cccc5c(=O)cc(N6CC7CCC(C6)O7)oc45)cccc3c2c1 [NU5455] gave an inhibition at 1 µM of 5.6%.
